Data: US20250144067A1, “PERSONALIZED STARVATION THERAPY FOR CANCER” (Faeth Therapeutics, Inc., priority 2021, published 2025)
Structures can show the parent of a compound that is named as a salt.

How the values were obtained:
[1] = system: NCI-H292 lung cancer cells; assay: FDA drug screening, complete media vs cholesterol-free media without statin (TABLE 1); assay type: cell-based, human
[2] = system: NCI-H292 lung cancer cells; assay: FDA drug screening, complete media vs cholesterol-free media with simvastatin (TABLE 2); assay type: cell-based, human; conditions: for Cholesterol-free media + simvastatin (0.04 μM) / Complete Media: NCI-H292 cells
[3] = Complete minus Cholesterol-free, >0 enhanced anti-cancer activity, about 0 neutral, <0 antagonist
[4] = NCI-H292 cells, cholesterol-free media without statin
[5] = FDA library drug in cholesterol-free media with simvastatin 0.04 μM
[6] = FDA library drug in complete media
[7] = complete media vs cholesterol-free media + simvastatin (0.04 μM), >0 enhanced anti-cancer activity, about 0 neutral, <0 antagonist
[8] = Complete minus Cholesterol-free, […]
[9] = NCI-H292 cells, FDA drug library screen, cholesterol-free media without statin
[10] = complete media vs cholesterol-free media + simvastatin (0.04 μM), […]
[11] = complete vs cholesterol-free media, greater than 0 enhanced anti-cancer activity, about 0 neutral, below 0 antagonists
[12] = drug in cholesterol-free media with simvastatin 0.04 μM
[13] = NCI-H292 cells, cholesterol-free media without statin, FDA drug library screen
[14] = NCI-H292 cells, complete media, FDA drug library screen
[15] = FDA drug library screen, cholesterol-free media with simvastatin 0.04 μM
[16] = FDA drug library screen, complete media
[17] = complete vs cholesterol-free media, >0 enhanced anti-cancer activity, about 0 neutral, <0 antagonist
[18] = cholesterol-free media with simvastatin 0.04 μM, FDA drug library screen (TABLE 2)
[19] = complete media, FDA drug library screen (TABLE 2)
[20] = complete media minus cholesterol-free media + simvastatin (0.04 μM), >0 enhanced anti-cancer activity, about 0 neutral, <0 antagonist
[21] = Complete minus Cholesterol-free, greater than 0 enhanced anti-cancer activity, about 0 neutral, below 0 antagonists
[22] = NCI-H292 cells in cholesterol-free media without statin
[23] = NCI-H292 cells in complete media
[24] = cholesterol-free media with simvastatin 0.04 μM, cell growth value in FDA drug screen
[25] = complete media, cell growth value in FDA drug screen
[26] = complete media minus cholesterol-free media + simvastatin, >0 enhanced anti-cancer activity, about 0 neutral, <0 antagonist
[27] = Complete minus Cholesterol-free, greater than 0 enhanced anti-cancer activity, about 0 neutral, below 0 antagonist
[28] = NCI-H292 cells, FDA drug library screen, complete media

## O=C(O[C@H]1CN2CCC1CC2)N1CCc2ccccc2[C@@H]1c1ccccc1 [Solifenacin]
[1]; [3]
  Difference: −0.26
[1]; [4]
  Cholesterol-free: 1.142
[1]; NCI-H292 cells, complete media
  Complete: 0.8797
[2]; [5]
  Cholesterol-free media + simvastatin (0.04 μM): 1.222
[2]; [6]
  Complete Media: 0.9497
[2]; [7]
  Difference: −0.27

## CC(C)C[C@@H](N)C(=O)N[C@H]1C(=O)N[C@@H](CC(N)=O)C(=O)N[C@H]2C(=O)N[C@H]3C(=O)N[C@H](C(=O)N[C@H](C(=O)O)c4cc(O)cc(O)c4-c4cc3ccc4O)[C@H](O)c3ccc(c(Cl)c3)Oc3cc2cc(c3O[C@@H]2O[C@H](CO)[C@@H](O)[C@H](O)[C@H]2O[C@H]2C[C@](C)(N)[C@H](O)[C@H](C)O2)Oc2ccc(cc2Cl)[C@H]1O.Cl [Norvancomycin (hydrochloride)]
[1]; [8]
  Difference: −0.07
[1]; [9]
  Cholesterol-free: 1.244
[2]; [5]
  Cholesterol-free media + simvastatin (0.04 μM): 1.335
[2]; [6]
  Complete Media: 0.8954
[2]; [10]
  Difference: −0.44

## Nafamostat (mesylate)
[1]; [4]
  Cholesterol-free: 1.215
[1]; NCI-H292 cells, complete media
  Complete: 0.8839
[1]; [11]
  Difference: −0.33
[2]; [12]
  Cholesterol-free media + simvastatin (0.04 μM): 1.2
[2]; drug in complete media
  Complete Media: 0.9501
[2]; [7]
  Difference: −0.25

## Nc1ccn([C@@H]2O[C@H](CO)[C@@H](O)[C@@H]2O)c(=O)n1 [Cytarabine]
[1]; [3]
  Difference: −0.05
[1]; [13]
  Cholesterol-free: 0.08949
[1]; [14]
  Complete: 0.04199
[2]; [15]
  Cholesterol-free media + simvastatin (0.04 μM): 0.2698
[2]; [16]
  Complete Media: 0.1951
[2]; [7]
  Difference: −0.07

## CCN(CC)CCOC(=O)C1(C2CCCCC2)CCCCC1 [Dicyclomine (hydrochloride)]
[1]; [4]
  Cholesterol-free: 1.211
[1]; NCI-H292 cells, complete media
  Complete: 0.8491
[1]; [11]
  Difference: −0.36
[2]; [15]
  Cholesterol-free media + simvastatin (0.04 μM): 0.9961
[2]; [16]
  Complete Media: 0.9187
[2]; [7]
  Difference: −0.08

## C=C1CC[C@@H]2[C@](C)(CO)[C@H](O)CC[C@@]2(C)[C@@H]1/C=C/C1=CCOC1=O [Dehydroandrographolide]
[1]; [8]
  Difference: −0.24
[1]; [4]
  Cholesterol-free: 0.9695
[1]; NCI-H292 cells, complete media
  Complete: 0.7339
[2]; [5]
  Cholesterol-free media + simvastatin (0.04 μM): 1.79
[2]; [6]
  Complete Media: 1.432
[2]; [10]
  Difference: −0.36

## CN1CCN(CC(=O)N2c3ccccc3C(=O)Nc3cccnc32)CC1 [Pirenzepine (dihydrochloride)]
[1]; [13]
  Cholesterol-free: 1.465
[1]; [14]
  Complete: 1.606
[1]; [17]
  Difference: 0.14
[2]; [18]
  Cholesterol-free media + simvastatin (0.04 μM): 1.293
[2]; [19]
  Complete Media: 1.265
[2]; [20]
  Difference: −0.03

## Nc1ccc(S(N)(=O)=O)cc1 [Sulfanilamide]
[1]; [4]
  Cholesterol-free: 1.317
[1]; NCI-H292 cells, complete media
  Complete: 1.005
[1]; [11]
  Difference: −0.31
[2]; [5]
  Cholesterol-free media + simvastatin (0.04 μM): 1.221
[2]; [6]
  Complete Media: 0.9133
[2]; [7]
  Difference: −0.31

## C[C@]12C=CC(=O)C=C1CC[C@@H]1[C@@H]2C(=O)C[C@@]2(C)[C@H]1CC[C@]2(O)C(=O)CO [Prednisone]
[1]; [21]
  Difference: −0.52
[1]; [22]
  Cholesterol-free: 1.522
[1]; [23]
  Complete: 1.002
[2]; [24]
  Cholesterol-free media + simvastatin (0.04 μM): 0.9598
[2]; [25]
  Complete Media: 1.028
[2]; [26]
  Difference: 0.07

## Aliskiren (hemifumarate)
[1]; [4]
  Cholesterol-free: 1.354
[1]; NCI-H292 cells, complete media
  Complete: 0.9547
[1]; [11]
  Difference: −0.40
[2]; [24]
  Cholesterol-free media + simvastatin (0.04 μM): 0.7275
[2]; [25]
  Complete Media: 0.8337
[2]; [26]
  Difference: 0.11

## Phentolamine (mesylate)
[1]; [21]
  Difference: −0.51
[1]; [22]
  Cholesterol-free: 1.404
[1]; [23]
  Complete: 0.8982
[2]; [18]
  Cholesterol-free media + simvastatin (0.04 μM): 0.9072
[2]; [19]
  Complete Media: 0.8992
[2]; [20]
  Difference: −0.01

## Cn1cnc2c(F)c(Nc3ccc(Br)cc3F)c(C(=O)NOCCO)cc21 [Binimetinib]
[1]; [3]
  Difference: 0.01
[1]; [13]
  Cholesterol-free: 0.1731
[1]; [14]
  Complete: 0.1825
[2]; [15]
  Cholesterol-free media + simvastatin (0.04 μM): 0.4887
[2]; [16]
  Complete Media: 0.381
[2]; [7]
  Difference: −0.11

## CN(C)CC/C=C1/c2ccccc2Sc2ccc(Cl)cc21 [Chlorprothixene]
[1]; [4]
  Cholesterol-free: 1.606
[1]; NCI-H292 cells, complete media
  Complete: 1.176
[1]; [11]
  Difference: −0.43
[2]; [15]
  Cholesterol-free media + simvastatin (0.04 μM): 2.022
[2]; [20]
  Difference: −0.96

## O=C(Cn1cnnn1)N[C@@H]1C(=O)N2C(C(=O)O)=C(CSc3nncs3)CS[C@H]12 [Ceftezole (sodium)]
[1]; [27]
  Difference: −0.11
[1]; [9]
  Cholesterol-free: 1.089
[1]; [28]
  Complete: 0.9806
[2]; [24]
  Cholesterol-free media + simvastatin (0.04 μM): 1.052
[2]; [25]
  Complete Media: 1.1
[2]; [26]
  Difference: 0.05

## CCN(CC)CCNC(=O)c1ccc(NC(C)=O)cc1 [N-Acetylprocainamide]
[1]; [13]
  Cholesterol-free: 1.279
[1]; [14]
  Complete: 1.656
[1]; complete vs cholesterol-free media, […]
  Difference: 0.38
[2]; [15]
  Cholesterol-free media + simvastatin (0.04 μM): 0.9234
[2]; [16]
  Complete Media: 0.8479
[2]; [10]
  Difference: −0.08

## CCCc1nc(C(C)(C)O)c(C(=O)OCc2oc(=O)oc2C)n1Cc1ccc(-c2ccccc2-c2nnn[nH]2)cc1 [Olmesartan medoxomil]
[1]; [13]
  Cholesterol-free: 0.613
[1]; [14]
  Complete: 1.033
[1]; [17]
  Difference: 0.42
[2]; [5]
  Cholesterol-free media + simvastatin (0.04 μM): 2.007
[2]; [6]
  Complete Media: 1.701
[2]; [7]
  Difference: −0.31

## CC(C)CCC[C@@H](C)[C@H]1CC[C@H]2[C@@H]3CC=C4C[C@@H](O)CC[C@]4(C)[C@H]3CC[C@]12C [Cholesterol]
[1]; [3]
  Difference: −0.27
[1]; [4]
  Cholesterol-free: 1.34
[1]; NCI-H292 cells, complete media
  Complete: 1.074
[2]; [5]
  Cholesterol-free media + simvastatin (0.04 μM): 1.697
[2]; [6]
  Complete Media: 1.069
[2]; [7]
  Difference: −0.63

## CCCCCC(=O)O[C@]1(C(C)=O)CC[C@H]2[C@@H]3CCC4=CC(=O)CC[C@]4(C)[C@H]3CC[C@@]21C [Hydroxyprogesterone caproate]
[1]; [4]
  Cholesterol-free: 1.133
[1]; NCI-H292 cells, complete media
  Complete: 0.7393
[1]; [11]
  Difference: −0.39
[2]; [15]
  Cholesterol-free media + simvastatin (0.04 μM): 1.029
[2]; [16]
  Complete Media: 0.8959
[2]; [7]
  Difference: −0.13

## O=C(O)CCCCC1CCSS1 (stereo not shown) [Lipoic acid]
[1]; [27]
  Difference: −0.11
[1]; [9]
  Cholesterol-free: 0.8613
[1]; [28]
  Complete: 0.7528
[2]; [15]
  Cholesterol-free media + simvastatin (0.04 μM): 0.7443
[2]; [16]
  Complete Media: 1.012
[2]; [26]
  Difference: 0.27

## CCCCNC(=O)NS(=O)(=O)c1ccc(C)cc1 [Tolbutamide]
[1]; [3]
  Difference: −0.25
[1]; [4]
  Cholesterol-free: 1.099
[1]; NCI-H292 cells, complete media
  Complete: 0.8474
[2]; [12]
  Cholesterol-free media + simvastatin (0.04 μM): 1.123
[2]; drug in complete media
  Complete Media: 0.9256
[2]; [7]
  Difference: −0.20

## C[C@H]1[C@H](NC(=O)/C(=N\OC(C)(C)C(=O)O)c2csc(N)n2)C(=O)N1S(=O)(=O)O [Aztreonam]
[1]; [3]
  Difference: −0.20
[1]; [4]
  Cholesterol-free: 1.093
[1]; NCI-H292 cells, complete media
  Complete: 0.892
[2]; [12]
  Cholesterol-free media + simvastatin (0.04 μM): 1.706
[2]; drug in complete media
  Complete Media: 1.446
[2]; [7]
  Difference: −0.26

## COc1cc2nc(N(C)CCCNC(=O)C3CCCO3)nc(N)c2cc1OC (stereo not shown) [Alfuzosin]
[1]; [27]
  Difference: −0.14
[1]; [9]
  Cholesterol-free: 0.9745
[1]; [28]
  Complete: 0.8372
[2]; [15]
  Cholesterol-free media + simvastatin (0.04 μM): 1.185
[2]; [16]
  Complete Media: 1.024
[2]; [7]
  Difference: −0.16
